Where “and” joins values, the source holds several entries; their conditions need not be identical. Equal values may be shown once. Read-outs that look alike come from different tables or passages of the source.
Legend:
[1] = Organic phase/aqueous phase partition coefficient of nicotine in presence of LIX (Table I); format: physicochemical; conditions: in words; for solubility of the nicotine-LIX complex: water versus hexane
Text: As hereinbefore disclosed, two different experimental criteria can be used to measure the capability of a LIX. First, the organic phase/water phase partition coefficient (PC) can be determined. The partition coefficient, as used herein, can be defined as the ratio of the amount of a substance dissolved in one phase in relation to the amount of the substance dissolved in the second phase. Accordingly, in determining the partition coefficient in the solvent extraction of nicotine from a tobacco processing fluid to another, the ratio would be the concentration of nicotine in the organic (extraction) phase divided by the concentration of nicotine in the aqueous (process) phase. If the partition coefficient increases, i.e., more of the nicotine is soluble in the organic phase, in the presence of a LIX, then this LIX meets one of the objectives for a successful nicotine transfer agent.
Table I is a presentation of the partition coefficients of various liquid ion exchangers, including control experiments where no LIX are utilized. […] Capabilities of the LIX as well as the components of the various phases must all be considered.

[2] = 2% LIX in Isopar K, 1.5 m2 PAN
Text: (§1) The apparatus used is a Model MSX-750 laboratory unit purchased from Sepracor, Inc., Marlborough, Mass.; it is a 3-panel, 3-loop, 2-membrane operation. As shown in the Figure, each panel has a solvent circulation pump (1), pressure gauge, flow rotometer, and multiple valves for control of the solvent input and output (not shown). A separate pump controller (not shown) provides variable speed and on/off controls for all three panels. Analysis ports are built into the unit to allow pH readings at the feedstock (2)- and recovery panels (3)- and automatic pH titration at the recovery solution panel. Sample aliquots can be removed from all three system solvents in line (4)- or from the reservoirs (5). The membrane modules (6) contain a hollow fiber bundle in a plastic cartridge with connectors to allow flow through the hollow fibers (lumen) with one solvent and simultaneous flow around the fibers (shell) with an "exchanging" solvent (not shown). The membrane fibers used were either regenerated cellulose (RC) or polyacrylonitrile (PAN) and were 0.5-1.5 square meters in surface area.
For this membrane separation process, solutions are recirculated at 100-900 ml/min. The feedstock reservoir volume is between 0.5 L and 8.0 L of aqueous solution which is 0.1-10.0% dissolved base, e.g., pyridine or nicotine, at a pH between 4 and 10. The feedstock solution can also contain other compounds, e.g., tobacco components. The organic solvent (OS) reservoir contains from 300-1000 mL of a water-immiscible solvent like hexane, heptane, octane, nonane, decane or Isopar K (Exxon) to which is added 0.1-10.0% of LIX. The OS is recirculated in the center panel through the lumen of both membrane modules and is always kept at 2-10 psi higher than the aqueous phases to maintain phase separation. The aqueous recovery solution is maintained at a constant pH (1.0-4.0) via an automatic titration unit (Metrohm Model 665 Dosimat with Model 614 Impulsomat and Model 632 Digital-pH-Meter, Metrohm Ltd., CH-9100 Herisau, Switzerland) using 1.0 M sulfuric acid to provide a pH differential and as a collection sink for the base being transferred, e.g., pyridine or nicotine.
Seven consecutive runs were performed with the apparatus outlined in Example XII without the use of a LIX in the OS, changing to a fresh 1 liter 0.32% nicotine FS each run and leaving the RS alone to concentrate the nicotine recovered (Section A). Prior to run 8, fresh FS, OS and RS solutions were placed within the system. For the five consecutive runs 8-12, 2% LIX (Example X) in Isopar K was used as the OS, 0.32% nicotine in deionized water for FS (one liter fresh for each run), and a fresh deionized water RS was left in place for all five runs to concentrate the nicotine (Section B). The volume of the RS increased during the runs 8-12 because the nicotine was transferred into it and because acid solution was pumped into it to maintain a pH of ca. 3. Then three additional runs 13-15 were made using the same OS and the same RS (to form a more concentrated nicotine solution) from Section B; 4 L FS solutions of 0.32% nicotine in deionized water (a fresh solution each run) were used (Section C). […] The OS continues to operate without replacement.

[3] = 180 min; 5% LIX, 20 mM nicotine, 4 L FS; ND = None detected
Text: as §1
For this membrane separation process, solutions are recirculated at 100-900 ml/min. The feedstock reservoir volume is between 0.5 L and 8.0 L of aqueous solution which is 0.1-10.0% dissolved base, e.g., pyridine or nicotine, at a pH between 4 and 10. […]

Structure (SMILES)	partition coefficient compared with no LIX present [1]	solubility of the nicotine-LIX complex [1]	Percent (%) nicotine remaining in FS ([2]; Section B, 0 min, 1 liter FS at 0.32% nicotine) [%]	Percent (%) nicotine remaining in FS ([2]; Section B, 15 min, 1 liter FS at 0.32% nicotine)	Percent (%) nicotine remaining in FS ([2]; Section B, 30 min, 1 liter FS at 0.32% nicotine)	Percent (%) nicotine remaining in FS ([2]; Section B, 45 min, 1 liter FS at 0.32% nicotine)	Percent (%) nicotine remaining in FS ([2]; Section B, 60 min, 1 liter FS at 0.32% nicotine)	Percent (%) nicotine remaining in FS ([2]; Section C, 0 min, 4 liters FS at 0.32% nicotine) [%]	Percent (%) nicotine remaining in FS ([2]; Section C, 60 min, 4 liters FS at 0.32% nicotine) [%]	Percent (%) nicotine remaining in FS ([2]; Section C, 120 min, 4 liters FS at 0.32% nicotine)	Percent (%) nicotine remaining in FS ([2]; Section C, 180 min, 4 liters FS at 0.32% nicotine)	Percent (%) nicotine remaining in FS ([2]; Section C, 240 min, 4 liters FS at 0.32% nicotine) [%]	Percent (%) remaining in FS [3] [%]
CCCCC(CC)COC(=O)[C@H](OC(C)=O)[C@@H](OC(C)=O)C(=O)O (mixture of isomers) [Example III, (2R, 3R, 2'R)- and (2R, 3R, 2'S)-Mono(2'-Ethylhexyl) 2,3-Bis(acetyloxy)butanedioate]	less than without any LIX present	more water soluble than hexane soluble											
CCCCC(CC)COC(=O)[C@H](OC(=O)CC)[C@@H](OC(=O)CC)C(=O)O (mixture of isomers) [Example V, (2R, 3R, 2'R)- and (2R, 3R, 2'S)-Mono(2'-Ethylhexyl) 2,3-Bis(propionyloxy)butanedioate]	less than without any LIX present	more water soluble than hexane soluble											
CCCCC(CC)COC(=O)[C@H](OC(=O)C(CC)CCCC)[C@@H](OC(=O)C(CC)CCCC)C(=O)O (stereo partly drawn) [Example X, (2R, 3R, 2'.xi., 2''.xi., 2'''.xi.)-Mono(2'-Ethylhexyl) 2,3-Bis(2-ethylhexanoyloxy)butanedioate]			100	49% and 50%	37% and 36% and 35%	23% and 24%	14% and 13%	100	51	35% and 37%	21% and 23%	13	10.0
